Test results as given in patent US12162892B2, “CD16a binding agents and uses thereof” (KLEO PHARMACEUTICALS, INC., priority 2018, dated 2024).
Values joined by “and” are separate entries in the source; they are usually repeats but may differ in a detail not shown here. Equal values may be shown once.

Tests used:
CD32a-R167 = experiment: Biotin ELISA, interaction with various receptors (Example 55); type: binding; details: three replicate values per compound
Method: (§1) Coat ELISA plates (Costar 3922) using Neutravidin (Thermo 31000) at 5 μg/ml (100 μl/well) for 1 hour at 37° C. Plates were washed 4 times with PBST (PBS, 0.05% Tween 20-200 μl, 1 minute/wash) then blocked using 200 μl 5% bovine serum albumin (BSA, Heat Shock, Fraction V-American Bio AB01088-00100) in PBST for 2 hours at 25° C. with moderate shaking. BSA was removed and plates were washed. Biotinylated ligands diluted in PBSTB (PBST+0.1% BSA) were then added (100 μl/well) and incubated for 1 hour at 25° C. with gentle shaking. Ligands were removed and plates were washed. Any remaining unoccupied neutravidin binding sites were blocked by adding 100 μM Biotin (Fisher BP232-1) (100 μl/well) and incubated for 1 hour at 25° C. with gentle shaking. Plates were then washed. […] Protein was removed and plates were washed. Streptavidin-HRP (Invitrogen 434323) diluted 1:5000 in PBSTB was added (100 μl/well) and incubated for 1 hour at 25° C. with gentle shaking. Wash plates. Substrate (Super Signal ELISA Pico Chemiluminescent Substrate-Thermo 37069) was added (100 μl/well) and plates were incubated for 5 minutes at 25° C. with gentle shaking. Luminescence was then measured on the Biotek Synergy H1 microplate reader.
(§2) Using similar methods as Examples 47 or 53, interactions with a number of receptors were measured. In some embodiments, “stock” is antibody only, and “control” is an antibody that went through the same procedure except using DMSO only as opposed to a compound. When contacted with targeting moieties such as antibodies in the Examples, compounds, e.g., I-95, I-96, etc. can react through their reactive groups

CD16a158V [1] = target: T1, CD16a158V (Homo sapiens, UniProt P08637, F176V); experiment: as above; type: binding; details: three replicate values per compound
T1 sequence (P08637 17-208 F176V): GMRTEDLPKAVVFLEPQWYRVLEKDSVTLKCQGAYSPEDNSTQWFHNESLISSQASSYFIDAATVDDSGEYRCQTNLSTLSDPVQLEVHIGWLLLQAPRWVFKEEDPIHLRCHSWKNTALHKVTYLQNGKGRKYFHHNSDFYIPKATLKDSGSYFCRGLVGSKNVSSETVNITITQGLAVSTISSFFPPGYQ
Method: as §1, §2

CD32a H167 = target: T2, CD32a H167 (Homo sapiens, UniProt P12318); experiment: as above; type: binding; details: three replicate values per compound
T2 sequence (P12318 36-218 limits assumed): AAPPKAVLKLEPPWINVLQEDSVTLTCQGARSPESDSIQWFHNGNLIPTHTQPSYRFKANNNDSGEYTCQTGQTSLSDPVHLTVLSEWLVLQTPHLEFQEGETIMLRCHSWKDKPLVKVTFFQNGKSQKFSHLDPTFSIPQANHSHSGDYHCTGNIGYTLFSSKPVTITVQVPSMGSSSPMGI
Method: as §1, §2

CD3ed = CD3ed (Homo sapiens, UniProt P04234+P07766); experiment: as above; type: binding; details: three replicate values per compound
Chain of CD3ed (P07766 23-126 limits assumed): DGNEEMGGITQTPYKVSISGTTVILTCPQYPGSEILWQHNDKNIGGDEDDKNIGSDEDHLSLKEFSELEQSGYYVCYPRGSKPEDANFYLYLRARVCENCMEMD
Chain of CD3ed (P04234 22-105 limits assumed): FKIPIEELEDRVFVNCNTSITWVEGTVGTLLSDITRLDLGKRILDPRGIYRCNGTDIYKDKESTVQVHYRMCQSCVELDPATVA
Method: as §1, §2

CD64 = CD64 (Homo sapiens, UniProt P12314); experiment: as above; type: binding; details: three replicate values per compound
Chain of CD64 (P12314 16-374): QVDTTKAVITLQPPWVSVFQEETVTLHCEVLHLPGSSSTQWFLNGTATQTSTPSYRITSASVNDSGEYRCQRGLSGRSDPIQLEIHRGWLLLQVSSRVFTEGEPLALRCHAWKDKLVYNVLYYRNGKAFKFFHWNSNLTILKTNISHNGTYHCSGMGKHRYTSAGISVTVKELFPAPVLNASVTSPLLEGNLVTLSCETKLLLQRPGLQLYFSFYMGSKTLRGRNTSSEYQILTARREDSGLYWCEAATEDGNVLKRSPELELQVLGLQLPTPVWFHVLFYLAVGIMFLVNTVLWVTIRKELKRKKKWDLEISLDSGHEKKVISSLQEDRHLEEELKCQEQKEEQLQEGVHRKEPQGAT
Method: as §1, §2

CD16a158F [2] = target: T3, CD16a158F (Homo sapiens, UniProt P08637); experiment: as above; type: binding; details: three replicate values per compound
T3 sequence (P08637 17-208 limits assumed): as the sequence (P08637 17-208 F176V) above, with V160F counted along it
Method: as §1, §2

CD32b = target: T4, CD32b (Homo sapiens, UniProt P31994); experiment: as above; type: binding; details: three replicate values per compound
T4 sequence (P31994 43-310): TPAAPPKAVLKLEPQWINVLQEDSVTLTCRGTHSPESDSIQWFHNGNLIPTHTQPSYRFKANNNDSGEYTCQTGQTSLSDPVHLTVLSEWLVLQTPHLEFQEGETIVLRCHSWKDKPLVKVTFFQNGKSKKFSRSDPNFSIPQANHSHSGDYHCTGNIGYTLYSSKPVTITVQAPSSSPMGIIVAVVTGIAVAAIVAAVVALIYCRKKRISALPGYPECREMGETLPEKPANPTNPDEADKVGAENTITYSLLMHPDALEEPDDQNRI
Method: as §1, §2

[3] = Biotin ELISA, No Protein (Example 55); type: binding; details: three replicate values per compound
Method: as §1, §2

CD16a158F [4] = target: T3, CD16a158F; experiment: Biotinylated Ligand ELISA Assay; type: binding; design: purchased Acro Biosystems CDA-H82E8; details: Biotinylated CD16a protein at 10 nM
Method: as §1

CD16a158V [5] = target: T1, CD16a158V; experiment: Biotinylated Ligand ELISA Assay; type: binding; details: Biotinylated CD16a protein at 10 nM
Method: as §1

[6] = tested on: CD16a negative THP1 cells; experiment: ADCP assay using THP-1 cells; type: cell-based; details: beads loaded with test compound at 50 uM; 37C for 18 hrs
Method: (§3) Biotinylated fluorescent beads (Invitrogen, cat #P35372) were thoroughly mixed by vortexing for 1 min. Ten microliters of supplied bead suspension per treatment type were dispensed in Eppendorf tubes, and washed with 1 ml PBS […], then re-suspended in 500 uL of 1% BSA in PBS. Test compounds were added to bead suspensions to a final concentration of 50 uM, and biotinylated human IgG whole molecule (Rockland 009-0602) final concentration of 20 ug/mL.
(§4) Tubes were incubated at room temperature for 1 hr on a rocking platform.
(§5) Following incubation, beads were pelleted in a microcentrifuge at 12,000 g for 5 minutes at room temperature. Supernatants were carefully aspirated and beads were washed 5 times by resuspending in 1 ml of PBS 1% BSA, and centrifuging as described above. Finally, beads were resuspended in 500 ul of PBS 1% BSA and used in ADCP assay.
(§6) Monocytes or THP-1 cells (TIB-202 ATCC) were seeded into 96 well round bottom 96 well plates at the density of 10^5 cells per well in 200 ul, and 10 uL of fluorescent bead suspension prepared as described above was added to each well. Well contents were mixed by pipetting up and down using a multichannel pipet, and plates were incubated at 37C for 18 hrs. After incubation, well contents were transferred into flat bottom black 96 well plates (Costar #3358) and centrifuged for 2 minutes at 300 g to allow for better visualization of the cells. Images were taken using Zoe fluorescent cell imager (Biorad).

primary monocytes = experiment: ADCP assay using fresh primary monocytes; type: cell-based, human; details: beads loaded with test compound at 50 uM; 37C for 18 hrs
Method: as §3, §4, §5
PBMC, freshly isolated from whole blood (Bioreclamation IVT0) using Ficoll-Paque density centrifugation were resuspended in serum-free, supplemented RPMI at 2×10^6 cells/mL.
Ten milliliters of the resulting cell suspension was seeded into 75-cm^2 tissue culture flask (Denville Scientific TC9341) and incubated 2-3 hr at 37° C. 5% CO2 to allow cell adhesion. Following incubation, media was decanted and surface of the flask was carefully washed twice, each time with 10 ml serum-free, supplemented RPMI to remove any residual non-adherent cells. To remove adherent cells, 10 mL of ice-cold 2.5 mM EDTA/PBS solution was added for 10 min on ice. Cells were transferred to a 15-ml conical tube and centrifuge 10 min at 300×g, room temperature, to remove the EDTA/PBS solution. Monocytes were then resuspended in RPMI 10% FCS at 5×10^5 cells/mL to be used in ADCP assay. Monocyte purity was assessed by staining cells with antibodies to human CD3 FITC (Biolegend 300306), CD19 PeCy7 (Biolegend 302216), CD14 BV421 (BD Biosciences, 565283), and CD16 (Biolegend 302046).
as §6

| Biotin ELISA Results CD32a-R167 (CD32a-R167) | Biotin ELISA Results CD16a-158V (CD16a158V [1]) | Biotin ELISA Results CD32a-H167 (CD32a H167) | Biotin ELISA Results CD3ed (CD3ed) | Biotin ELISA Results CD64 (CD64) | Biotin ELISA Results CD16a-158F (CD16a158F [2]) | Biotin ELISA Results CD32b (CD32b) | SMILES | Biotin ELISA Results No Protein [3] | Biotinylated Ligand ELISA-CD16a158F Binding (RLU) (CD16a158F [4]) | Biotinylated Ligand ELISA-CD16a158V Binding (RLU) (CD16a158V [5]) | ACDP (CD16a negative THP1 cells)-normalized phagocytosis score [6] | ACDP (primary monocytes)-normalized phagocytosis score (primary monocytes) |
| --- | --- | --- | --- | --- | --- | --- | --- | --- | --- | --- | --- | --- |
| 11818 and 37679* and 11737 | 3136 and 3515 and 1518 | 5263 and 6063 and 4354 | 7926 and 1921 and 46693* | 43288 and 127129* and 49818 | 34842 and 7323* and 23569 | 10786 and 29882* and 8282 | O=C(CCCC[C@@H]1SC[C@@H]2NC(=O)N[C@@H]21)NCCOCCOCCOCCOCCOCCOCCOCCOCCn1cc(-c2ccc(NC(=O)N3CCC(N4CCN(Cc5ccccc5)C4=O)CC3)cc2)nn1 [Compound I-15, N-{4-[1-(26-{5-[(3aS,4S,6aR)-2-oxo-hexahydro-1H-thieno[3,4-d]imidazol-4-yl]pentanamido}-3,6,9,12,15,18,21,24-octaoxahexacosan-1-yl)-1H-1,2,3-triazol-4-yl]phenyl}-4-(3-benzyl-2-oxoimidazolidin-1-yl)piperidine-1-carboxamide] | 3931 and 5958 and 23315* | B (a relative luminescence value (RLU) of 10,000-100,000) | B (a relative luminescence value (RLU) of 10,000-100,000) | – | – |
| – | – | – | – | – | – | – | O=C(CCCC[C@@H]1SC[C@@H]2NC(=O)N[C@@H]21)NCCOCCOCCOCCOCCOCCOCCOCCOCCn1cc(-c2ccc(NC(=O)N3CCC4(CC3)NC(=O)N(c3ccccc3)C4=O)cc2)nn1 [Compound I-18, N-{4-[1-(26-{5-[(3aS,4S,6aR)-2-oxo-hexahydro-1H-thieno[3,4-d]imidazol-4-yl]pentanamido}-3,6,9,12,15,18,21,24-octaoxahexacosan-1-yl)-1H-1,2,3-triazol-4-yl]phenyl}-2,4-dioxo-3-phenyl-1,3,8-triazaspiro[4.5]decane-8-carboxamide] | – | D (a relative luminescence value (RLU) of 1-1,000) | D (a relative luminescence value (RLU) of 1-1,000) | B (a normalized phagocytosis score of 1.5-2.0) | – |
| 2048 and −50 and 349 | −544 and −988 and −964 | 276 and 696 and −362 | 1852 and 1310 and 797 | 40706 and 42386 and 41814 | −1097 and −1078 and −689 | 2072 and 737 and 1622 | O=C(CCCC[C@@H]1SC[C@@H]2NC(=O)N[C@@H]21)NCCOCCOCCOCCOCCOCCOCCOCCOCCn1cc(-c2ccc(OCC(=O)N3CCC(N4CC(=O)N(c5ccccc5)C4=O)CC3)cc2)nn1 [Compound I-19, 5-[(3aS,4S,6aR)-2-oxo-hexahydro-1H-thieno[3,4-d]imidazol-4-yl]-N-{26-[4-(4-{2-[4-(2,4-dioxo-3-phenylimidazolidin-1-yl)piperidin-1-yl]-2-oxoethoxy}phenyl)-1H-1,2,3-triazol-1-yl]-3,6,9,12,15,18,21,24-octaoxahexacosan-1-yl}pentanamide] | 1266 and 122 and 3990 | D (a relative luminescence value (RLU) of 1-1,000) | D (a relative luminescence value (RLU) of 1-1,000) | – | – |
| 8460 and 31058 and 13897 | 2543 and 5076 and 2414 | 3600 and 3315 and 3632 | 3087 and 4575 and 2480 | 40426 and 53812 and 48052 | 19818 and 20544 and 2349* | 3985 and 5047 and 3438 | O=C(CCCC[C@@H]1SC[C@@H]2NC(=O)N[C@@H]21)NCCOCCOCCOCCOCCOCCOCCOCCOCCn1cc(-c2cccc(NC(=O)N3CCC4(CC3)NC(=O)N(Cc3ccccc3)C4=O)c2)nn1 [Compound I-16, N-{3-[1-(26-{5-[(3aS,4S,6aR)-2-oxo-hexahydro-1H-thieno[3,4-d]imidazol-4-yl]pentanamido}-3,6,9,12,15,18,21,24-octaoxahexacosan-1-yl)-1H-1,2,3-triazol-4-yl]phenyl}-3-benzyl-2,4-dioxo-1,3,8-triazaspiro[4.5]decane-8-carboxamide] | 4636 and 2801 and 5055 | D (a relative luminescence value (RLU) of 1-1,000) | D (a relative luminescence value (RLU) of 1-1,000) | – | B (a normalized phagocytosis score of 1.5-2.0) |
